Reference: US20220034873A1, “POLYMERIC CHROMOPHORES, COMPOSITIONS COMPRISING THE SAME, AND METHODS OF PREPARING AND USING THE SAME” (North Carolina State University, priority 2018, published 2022)

Tests used:
[1] = Absorption and emission spectra of dyes D1-D3 and dye-loaded copolymers F1-F3; assay type: physicochemical
Text: Measurements of Absorption and Emission Spectra. The target dye-loaded copolymers F1-F3 were then subjected to investigations of their spectroscopic properties in both organic solvents and aqueous solution. […] Attaching to the 120-kDa amphiphilic copolymer drastically enhances the water solubility of BODIPY D1 and chlorin D2 without strong perturbation on the spectroscopic properties. The emission band for F1 and F2 in water remains the same as the ones measured in organic solutions, showing minimal dye-dye interaction is involved in aqueous solution of F1 and F2 at μM concentration. […] This negative result may be because of the inappropriate size of the copolymer backbone. Larger polymers may be required to encapsulate large hydrophobic chromophores like the phthalocyanine D3.
General Methods. All chemicals obtained commercially were used as received unless otherwise noted. Reagent-grade solvents (CH2Cl2, THF, methanol) and HPLC-grade water were used as received. NMR data was measured in a solution of CDCl3 unless otherwise noted. Noncommercial compounds 1, 2, and 4 were prepared following literature procedures. Analytical SEC experiments were performed with PLgel 10000 Å SEC column, eluted with ACS grade THF (stablized with 400 ppm of BHT) at 35° C. with a flow rate at 1 mL/min. Samples were detected with Agilent 1260 infinity refractive index detector. Absorption spectra were measured on Agilent 8453 and Shimadzu UV1800 instruments using dilute […] solutions of the compound in UV transparent (e.g., quartz) cuvettes versus a solvent blank at room temperature.

[2] = cited from earlier work

Cc1cc(C)c(C2=C3C=CC=[N+]3[B-](F)(F)n3cc(C#CCCCCC(=O)NN)cc32)c(C)c1 [Polymer D1, 2-[6-(N-Aminocarbamoyl)hex-1-yn-1-yl]-8-mesityl-4,4-difluoro-4-bora-3a,4a-diaza-s-indacene]
λabs max ([1]; in CH2Cl2, room temperature): 543 nm

Cc1cc(C)c(-c2c3nc(c(-c4ccc(C(=O)NN)cc4)c4ccc(cc5nc(cc6ccc2[nH]6)CC5(C)C)[nH]4)C=C3)c(C)c1 [Polymer D2, 5-[4-(N-Aminocarbamoyl)phenyl]-10-Mesityl-18,18-dimethylchlorin]
λabs max ([1]; in CH2Cl2, room temperature): 640 nm

CCCCCCCc1cc2c(cc1CCCCCCC)-c1nc-2nc2[nH]c(nc3nc(nc4[nH]c(n1)c1cc(CCCCCCC)c(CCCCCCC)cc41)-c1cc(C#Cc4ccc(CC(=O)NN)cc4)ccc1-3)c1cc(CCCCCCC)c(CCCCCCC)cc21 [Polymer D3, 2-[4-(N-Aminocarbamoyl)methylphenylethynyl]-9,10,16,17,23,24-hexaheptylphthalocyanine]
λabs max ([1]; in toluene): 702 nm

CCN(CC)c1ccc2c(c1)Oc1cc(N(CC)CC)ccc1C21c2ccccc2C(=O)N1N [Rhodamine-B hydrazide]
change in absorption or fluorescence spectra ([2]; only with Cu(II) and Hg(II) among the cations tested, aqueous solution): significant change in absorption or fluorescence spectra
Cu(II) concentration detected quantitatively ([2]; selective detection of Cu(II) in aqueous solution): 10^−7 M
